Experimental data: patent US20220072014A1, “PHARMACEUTICAL COMPOSITION WHICH COMPRISES THE COMBINATION OF A SELECTIVE INHIBITOR OF CYCLOOXYGENASE 2 AND A CARBAMATE DERIVED FROM GUAIFENESIN FOR TREATING PAIN, INFLAMMATION AND MUSCULAR CONTRACTION” (priority 2018, published 2022)

Columns and labels:
[1] = test system: gout arthritis induced by intra-articular uric acid; experiment: pain-induced functional impairment in the rat model (PIFIR model), uric acid-induced gout arthritis; assay type: in vivo, male Wistar rats
Protocol: All experiments were performed during the light phase of the light/darkness cycles.

[2] = FDA prescribing information; cited from earlier work
[3] = test system: rats (lethality); experiment: preclinical toxicity (lethality) study after oral administration; assay type: in vivo, male Wistar rats
Text: In order to determine the possible antinociceptive and toxic effects of the combination, male Wistar rats [Crl:(WI)fBR] with a weight of 180-200 g were used. All experimental procedures complied with the recommendations of the Committee for Research and Ethical Issues of the International Association for the Study of Pain (Covino et al., 1980) and the Guidelines on Ethical Standards for Investigations of Experimental Pain in Animals (Zimmermann 1983). The number of experimental animals was kept to a minimum (6 animals per experimental point for antinociceptive effects and 10 animals per experimental point for adverse effects:lethality). The rats were kept in a room with alternating light/darkness cycles. For twelve hours before the antinociception experiments rats fasted but had free access to water. All experiments were performed during the light phase of the light/darkness cycles.
The lethal toxic effects after single administrations were determined in 3 post-treatment timepoints, 24, 48 and 72 hours, in order to determine the corresponding DRC (death).

[4] = weight gain of experimental animals; assay type: in vivo, rats; details: celecoxib doses used for the chronic treatment DRC, alone or combined
[5] = test system: arthrosis and rheumatoid arthritis (RA) patients; details: patients without concomitant ASA; cited from earlier work
[6] = oral route, cited from earlier work

SMILES	maximal effect (% FI) ([1]; 2.5 h after oral administration, celecoxib 1,000 mg/Kg alone or with methocarbamol 50 mg/Kg) [%]	effect four hours after being administered (% FI) ([1]; 4 h after oral administration, celecoxib 1,000 mg/Kg alone or with methocarbamol 50 mg/Kg) [%]	ED50 ([1]; Rattus norvegicus, po, read-out: ED50 (antinociceptive dose-response curve)) [mg/kg]	peak antinociceptive effectiveness (AUC of temporal course, global antinociceptive effect) ([1]; oral, acute administration, 4-hour assessment, most efficacious dose celecoxib 1,000 mg/Kg (combination with methocarbamol 50 mg/Kg))	estimated effective half-life [2] [h]	dose at which the lethality DRC begins ([3]; 24 hours) [mg/kg]	effect on normal weight gain [4]	GI bleeding incidence [5]	antinociceptive effect during the assessment period ([1]; methocarbamol 50 mg/Kg alone, oral, 4-hour assessment)	time to peak action ([6]; humans) [h]	time to reach active levels [6] [min]	dose causing lethality effects within 24 hours [3]
Cc1ccc(-c2cc(C(F)(F)F)nn2-c2ccc(S(N)(=O)=O)cc2)cc1 [celecoxib, 4-[5-(4-methylphenyl)-3-(trifluoromethyl)-1H-pyrazol-1-yl]benzenesulfonamide]	63.6±9.9	62.5±7.0	51.1	191.9±27.2 area units (au)	8 to 12	17800	does not modify the normal weight gain	lower GI bleeding incidence				
COc1ccccc1OCC(O)COC(N)=O (stereo not drawn) [methocarbamol, 3-(2-methoxyphenoxy)-1,2-propanediol 1-carbamate]									did not produce any antinociceptive effect whatsoever	≤ 2	≤ 30	1,000 mg/Kg
